In PubChem BioAssay (NCI) one finds TGI data, which are given here for 8 compounds.

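Test compounds were applied to cells in 96-well plates for 48 hours at 5 doses. TGI marks complete inhibition of growth.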 Where only a bound is given, the exact number is not on record here.

Among the test systems are KM20L2 colon; DMS 273 small cell lung; NCI-H522 lung; EKVX NSCLC; SK-OV-3 ovarian; KM12 colon; XF 498 CNS; OVCAR-3 ovarian; SNB-78 CNS; HOP-18 NSCLC; NCI-H226 lung; MCF7 breast; MDA-N.
Holding throughout (assay): NCI-60 cell line screen, 48 h

Regarding `CC(C(=O)OCc1ccccc1)N(Cc1ccccc1)Cc1ccccc1` (stereo not drawn), the TGI in the assay on KM20L2 colon, in the assay on DMS 273 small cell lung, in the assay with NCI-H522 lung, with EKVX NSCLC, in the assay with SK-OV-3 ovarian and in the assay on KM12 colon was above 100 µM throughout. The TGI in the assay on XF 498 CNS is 77.7 µM; in the assay on OVCAR-3 ovarian it was above 100 µM; in the assay on SNB-78 CNS, above 100 µM.
Regarding `COc1ccccc1OCC(COC(=O)Nc1ccccc1)OC(=O)Nc1ccccc1` (stereo not drawn), the TGI in the assay on HOP-18 NSCLC, with NCI-H226 lung, with KM20L2 colon, in the assay with DMS 273 small cell lung, in the assay with NCI-H522 lung and with EKVX NSCLC was above 100 µM in each case. Also, the TGI in the assay on SK-OV-3 ovarian, in the assay with KM12 colon, with XF 498 CNS, with OVCAR-3 ovarian and with SNB-78 CNS was above 100 µM each time.
For `C#CC[C@@]12CC(=O)C[C@@H]1CCC1(C2)OCCO1` (tested in a mixture with another compound), the TGI in the assay on HOP-18 NSCLC, with NCI-H226 lung, with KM20L2 colon, with DMS 273 small cell lung, with NCI-H522 lung and in the assay on EKVX NSCLC was above 100 µM in each case. Further, the TGI in the assay with SK-OV-3 ovarian, in the assay with KM12 colon, with MCF7 breast, with XF 498 CNS, with OVCAR-3 ovarian and in the assay with SNB-78 CNS was above 100 µM each time.
As for `O=C(NNC(=S)Nc1ccccc1)c1nsc2ccccc12`, the TGI in the assay with HOP-18 NSCLC was 41.4 µM; with KM20L2 colon it was above 100 µM; with DMS 273 small cell lung, 69.8 µM; in the assay on EKVX NSCLC, above 100 µM; in the assay with KM12 colon, above 100 µM; in the assay with OVCAR-3 ovarian it was 35.1 µM. This compound also had a TGI with SNB-78 CNS above 100 µM.
Turning to `O=C(O)CCC(=O)OCN1C(=O)C2C3C=CC(C2C1=O)C1C2C(=O)N(COC(=O)CCC(=O)O)C(=O)C2C31` (stereo not drawn), the TGI is above 100 µM with HOP-18 NSCLC; above 100 µM in the assay on NCI-H226 lung; above 100 µM in the assay with KM20L2 colon; above 58.2 µM in the assay on DMS 273 small cell lung; above 85.8 µM in the assay on NCI-H522 lung; above 100 µM in the assay with EKVX NSCLC. In addition, the TGI in the assay with SK-OV-3 ovarian, in the assay on KM12 colon, in the assay with XF 498 CNS, with OVCAR-3 ovarian and with SNB-78 CNS was above 100 µM in each case.
For `O=C(CCN1CCOCC1)/C(=C/c1ccccc1)c1ccccc1`, the TGI was 30.6 µM with HOP-18 NSCLC; 21.3 µM with NCI-H226 lung; 15.1 µM with KM20L2 colon; 21.4 µM in the assay with DMS 273 small cell lung; 3.84 µM in the assay with NCI-H522 lung; 23.9 µM in the assay on EKVX NSCLC. Further, the TGI was determined as 43.3 µM in the assay on SK-OV-3 ovarian; 16.5 µM with KM12 colon; 18.8 µM with MCF7 breast; 19.1 µM in the assay on XF 498 CNS; 13.5 µM in the assay on OVCAR-3 ovarian; 21.3 µM with SNB-78 CNS.
On to `COc1cccc(N=N/C(=N/NC(=O)c2ccc(C)cc2)c2ccc(N(CCC#N)CCC#N)cc2OC)c1`, for which the TGI was above 100 µM in the assay with NCI-H226 lung; above 100 µM with NCI-H522 lung; 37.4 µM with EKVX NSCLC; above 100 µM in the assay on SK-OV-3 ovarian; above 100 µM in the assay on KM12 colon; above 100 µM in the assay on MCF7 breast. Also, the TGI in the assay on MDA-N and in the assay with OVCAR-3 ovarian was above 100 µM in each case.
Consider `Nc1ccc(-c2nc3ccccc3s2)cc1Cl`, for which the TGI in the assay on NCI-H226 lung, with NCI-H522 lung, in the assay on EKVX NSCLC, with SK-OV-3 ovarian, in the assay with KM12 colon and with MCF7 breast was above 100 µM each time. Also, the TGI in the assay with MDA-N and in the assay with OVCAR-3 ovarian was above 100 µM each time.
